According to patent publication US8716297B2, “Chemical entities to be used for Wee1 inhibition for the treatment of cancer” (AbbVie Inc., priority 2011, dated 2014):

molecular target: T1, GST-tagged-Wee1 kinase (Homo sapiens, UniProt P30291); assay: Wee1 time-resolved fluorescence equilibrium binding assay (displacement of Oregon Green-labeled ATP-competitive probe); conditions: TR-FRET probe displacement; 2 nM GST-Wee1, 300 nM probe, 1 hour incubation; read-out: Wee-1 binding (Ki nM)
T1 construct: purchased Carnabio 05-177
T1 sequence (P30291 whole entry): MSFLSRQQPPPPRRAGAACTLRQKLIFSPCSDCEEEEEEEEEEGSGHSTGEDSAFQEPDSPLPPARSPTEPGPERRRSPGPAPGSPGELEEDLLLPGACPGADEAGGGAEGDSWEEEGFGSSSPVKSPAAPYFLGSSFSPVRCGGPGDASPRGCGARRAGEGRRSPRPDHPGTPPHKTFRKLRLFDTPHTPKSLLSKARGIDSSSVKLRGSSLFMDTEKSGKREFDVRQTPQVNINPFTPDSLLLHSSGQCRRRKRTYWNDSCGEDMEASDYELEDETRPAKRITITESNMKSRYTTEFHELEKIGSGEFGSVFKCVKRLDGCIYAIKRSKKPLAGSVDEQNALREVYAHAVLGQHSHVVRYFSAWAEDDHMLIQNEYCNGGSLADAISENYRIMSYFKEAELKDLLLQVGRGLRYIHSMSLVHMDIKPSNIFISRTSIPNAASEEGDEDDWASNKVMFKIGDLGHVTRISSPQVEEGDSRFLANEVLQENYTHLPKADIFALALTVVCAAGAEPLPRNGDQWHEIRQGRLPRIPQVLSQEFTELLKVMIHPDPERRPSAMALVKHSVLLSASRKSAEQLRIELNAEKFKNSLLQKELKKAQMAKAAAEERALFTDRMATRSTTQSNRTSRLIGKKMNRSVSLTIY
Method: Wee1 kinase was assayed using a time-resolved fluorescence equilibrium binding assay monitoring displacement of a rapidly reversible Oregon Green-labeled ATP-competitive kinase probe (N-(2-(2-(2-(4-(4-(5-chloro-4-(2-(1-hydroxycyclobutyl)thiazol-5-yl)-1H-pyrrolo[2,3-b]pyridin-2-yl)phenyl)piperazin-1-yl)ethoxy)ethoxy)ethyl)-2′,7′-difluoro-3′,6′-dihydroxy-3-oxo-3H-spiro[isobenzofuran-1,9′-xanthene]-5-carboxamide) by competitive Wee1 inhibitors.

| SMILES | Ki [nM] |
| --- | --- |
| COC(=O)c1ccc2c(c1)NS(=O)(=O)c1cnc(Nc3ccc(N4CCN(C)CC4)cc3)nc1-2 [Example 65, methyl 2-{[4-(4-methylpiperazin-1-yl)phenyl]amino}-6H-pyrimido[5,4-c][2,1]benzothiazine-8-carboxylate 5,5-dioxide] | 256 |
| CCCN1c2cc(Br)ccc2-c2nc(Nc3ccc(N4CCN(C)CC4)cc3)ncc2S1(=O)=O [Example 66, 8-bromo-N-[4-(4-methylpiperazin-1-yl)phenyl]-6-propyl-6H-pyrimido[5,4-c][2,1]benzothiazin-2-amine 5,5-dioxide] | 6 |
| CCCN1c2cc(-c3ccccc3)ccc2-c2nc(Nc3ccc(N4CCN(C)CC4)cc3)ncc2S1(=O)=O [Example 68, N-[4-(4-methylpiperazin-1-yl)phenyl]-8-phenyl-6-propyl-6H-pyrimido[5,4-c][2,1]benzothiazin-2-amine 5,5-dioxide] | 92 |
| CCCN1c2cc(-c3ccc(C(=O)NC4CC4)cc3)ccc2-c2nc(Nc3ccc(N4CCN(C)CC4)cc3)ncc2S1(=O)=O [Example 72, N-cyclopropyl-4-(2-{[4-(4-methylpiperazin-1-yl)phenyl]amino}-5,5-dioxido-6-propyl-6H-pyrimido[5,4-c][2,1]benzothiazin-8-yl)benzamide] | 7 |
| CCCN1c2cc(-c3ccsc3)ccc2-c2nc(Nc3ccc(N4CCN(C)CC4)cc3)ncc2S1(=O)=O [Example 74, N-[4-(4-methylpiperazin-1-yl)phenyl]-6-propyl-8-(3-thienyl)-6H-pyrimido[5,4-c][2,1]benzothiazin-2-amine 5,5-dioxide] | 20 |
| CCCN1c2cc(-c3ccc(O)cc3)ccc2-c2nc(Nc3ccc(N4CCN(C)CC4)cc3)ncc2S1(=O)=O [Example 75, 4-(2-{[4-(4-methylpiperazin-1-yl)phenyl]amino}-5,5-dioxido-6-propyl-6H-pyrimido[5,4-c][2,1]benzothiazin-8-yl)phenol] | 14 |
| CCCN1c2cc(-c3c[nH]c4ncccc34)ccc2-c2nc(Nc3ccc(N4CCN(C)CC4)cc3)ncc2S1(=O)=O [Example 77, N-[4-(4-methylpiperazin-1-yl)phenyl]-6-propyl-8-(1H-pyrrolo[2,3-b]pyridin-3-yl)-6H-pyrimido[5,4-c][2,1]benzothiazin-2-amine 5,5-dioxide] | 57 |
| CCCN1c2cc(C(=O)OC)ccc2-c2nc(Nc3ccc(N4CCN(C)CC4)cc3)ncc2S1(=O)=O [Example 78, methyl 2-{[4-(4-methylpiperazin-1-yl)phenyl]amino}-6-propyl-6H-pyrimido[5,4-c][2,1]benzothiazine-8-carboxylate 5,5-dioxide] | 6 |
| CCCN1c2cc(C(N)=O)ccc2-c2nc(Nc3ccc(N4CCN(C)CC4)cc3)ncc2S1(=O)=O [Example 79, 2-{[4-(4-methylpiperazin-1-yl)phenyl]amino}-6-propyl-6H-pyrimido[5,4-c][2,1]benzothiazine-8-carboxamide 5,5-dioxide] | 6 |
| CCCN1c2cc(C(C)(C)O)ccc2-c2nc(Nc3ccc(N4CCN(C)CC4)cc3)ncc2S1(=O)=O [Example 80, 2-(2-{[4-(4-methylpiperazin-1-yl)phenyl]amino}-5,5-dioxido-6-propyl-6H-pyrimido[5,4-c][2,1]benzothiazin-8-yl)propan-2-ol] | 14 |
| CCCN1c2cc(C(=O)NC3CCCCC3)ccc2-c2nc(Nc3ccc(N4CCN(C)CC4)cc3)ncc2S1(=O)=O [Example 81, N-cyclohexyl-2-{[4-(4-methylpiperazin-1-yl)phenyl]amino}-6-propyl-6H-pyrimido[5,4-c][2,1]benzothiazine-8-carboxamide 5,5-dioxide] | 13 |
| CCCN1c2cc(C(=O)NC)ccc2-c2nc(Nc3ccc(N4CCN(C)CC4)cc3)ncc2S1(=O)=O [Example 82, N-methyl-2-{[4-(4-methylpiperazin-1-yl)phenyl]amino}-6-propyl-6H-pyrimido[5,4-c][2,1]benzothiazine-8-carboxamide 5,5-dioxide] | 10 |
| CCCN1c2cc(C(=O)N(C)C)ccc2-c2nc(Nc3ccc(N4CCN(C)CC4)cc3)ncc2S1(=O)=O [Example 83, N,N-dimethyl-2-{[4-(4-methylpiperazin-1-yl)phenyl]amino}-6-propyl-6H-pyrimido[5,4-c][2,1]benzothiazine-8-carboxamide 5,5-dioxide] | 23 |
| CCCN1c2cc(C(=O)NCCO)ccc2-c2nc(Nc3ccc(N4CCN(C)CC4)cc3)ncc2S1(=O)=O [Example 84, N-(2-hydroxyethyl)-2-{[4-(4-methylpiperazin-1-yl)phenyl]amino}-6-propyl-6H-pyrimido[5,4-c][2,1]benzothiazine-8-carboxamide 5,5-dioxide] | 8 |
| COC(=O)c1ccc2c(c1)N(c1cccc(C)c1)S(=O)(=O)c1cnc(Nc3ccc(N4CCN(C)CC4)cc3)nc1-2 [Example 89, methyl 6-(3-methylphenyl)-2-{[4-(4-methylpiperazin-1-yl)phenyl]amino}-6H-pyrimido[5,4-c][2,1]benzothiazine-8-carboxylate 5,5-dioxide] | 63 |
| COC(=O)c1ccc2c(c1)N(c1cc(C(F)(F)F)cc(C(F)(F)F)c1)S(=O)(=O)c1cnc(Nc3ccc(N4CCN(C)CC4)cc3)nc1-2 [Example 91, methyl 6-[3,5-bis(trifluoromethyl)phenyl]-2-{[4-(4-methylpiperazin-1-yl)phenyl]amino}-6H-pyrimido[5,4-c][2,1]benzothiazine-8-carboxylate 5,5-dioxide] | 2700 |
| CCCN1c2cc(-n3ccnc3)ccc2-c2nc(Nc3ccc(N4CCN(C)CC4)cc3)ncc2S1(=O)=O [Example 92, 8-(1H-imidazol-1-yl)-N-[4-(4-methylpiperazin-1-yl)phenyl]-6-propyl-6H-pyrimido[5,4-c][2,1]benzothiazin-2-amine 5,5-dioxide] | 14 |
| CCCN1c2cc(-n3cccc3)ccc2-c2nc(Nc3ccc(N4CCN(C)CC4)cc3)ncc2S1(=O)=O [Example 93, N-[4-(4-methylpiperazin-1-yl)phenyl]-6-propyl-8-(1H-pyrrol-1-yl)-6H-pyrimido[5,4-c][2,1]benzothiazin-2-amine 5,5-dioxide] | 45 |
| CCCN1c2cc(-n3cncn3)ccc2-c2nc(Nc3ccc(N4CCN(C)CC4)cc3)ncc2S1(=O)=O [Example 94, N-[4-(4-methylpiperazin-1-yl)phenyl]-6-propyl-8-(1H-1,2,4-triazol-1-yl)-6H-pyrimido[5,4-c][2,1]benzothiazin-2-amine 5,5-dioxide] | 7 |

The next molecules have a lower Ki than those just listed; values first:

| Ki [nM] | SMILES |
| --- | --- |
| 5 | CCCN1c2cc(-c3cn[nH]c3)ccc2-c2nc(Nc3ccc(N4CCN(C)CC4)cc3)ncc2S1(=O)=O [Example 70, N-[4-(4-methylpiperazin-1-yl)phenyl]-6-propyl-8-(1H-pyrazol-4-yl)-6H-pyrimido[5,4-c][2,1]benzothiazin-2-amine 5,5-dioxide] |
| 5 | CCCN1c2cc(-c3ccncc3)ccc2-c2nc(Nc3ccc(N4CCN(C)CC4)cc3)ncc2S1(=O)=O [Example 76, N-[4-(4-methylpiperazin-1-yl)phenyl]-6-propyl-8-(pyridin-4-yl)-6H-pyrimido[5,4-c][2,1]benzothiazin-2-amine 5,5-dioxide] |
| 5 | CCCN1c2cc(C(=O)NCCOC)ccc2-c2nc(Nc3ccc(N4CCN(C)CC4)cc3)ncc2S1(=O)=O [Example 85, N-(2-methoxyethyl)-2-{[4-(4-methylpiperazin-1-yl)phenyl]amino}-6-propyl-6H-pyrimido[5,4-c][2,1]benzothiazine-8-carboxamide 5,5-dioxide] |
| 5 | CCCN1c2cc(C(=O)NCc3cccnc3)ccc2-c2nc(Nc3ccc(N4CCN(C)CC4)cc3)ncc2S1(=O)=O [Example 87, 2-{[4-(4-methylpiperazin-1-yl)phenyl]amino}-6-propyl-N-(pyridin-3-ylmethyl)-6H-pyrimido[5,4-c][2,1]benzothiazine-8-carboxamide 5,5-dioxide] |
| 4 | CCCN1c2ccccc2-c2nc(Nc3ccc(N4CCN(C)CC4)cc3)ncc2S1(=O)=O [Example 67, N-[4-(4-methylpiperazin-1-yl)phenyl]-6-propyl-6H-pyrimido[5,4-c][2,1]benzothiazin-2-amine 5,5-dioxide] |
| 4 | CCCN1c2cc(-c3cccnc3)ccc2-c2nc(Nc3ccc(N4CCN(C)CC4)cc3)ncc2S1(=O)=O [Example 69, N-[4-(4-methylpiperazin-1-yl)phenyl]-6-propyl-8-(pyridin-3-yl)-6H-pyrimido[5,4-c][2,1]benzothiazin-2-amine 5,5-dioxide] |
| 4 | CCCN1c2cc(-c3ccc(C(N)=O)cc3)ccc2-c2nc(Nc3ccc(N4CCN(C)CC4)cc3)ncc2S1(=O)=O [Example 71, 4-(2-{[4-(4-methylpiperazin-1-yl)phenyl]amino}-5,5-dioxido-6-propyl-6H-pyrimido[5,4-c][2,1]benzothiazin-8-yl)benzamide] |
| 4 | CCCN1c2cc(C(=O)N[C@H]3CC[C@H](N)CC3)ccc2-c2nc(Nc3ccc(N4CCN(C)CC4)cc3)ncc2S1(=O)=O [Example 86, N-(trans-4-aminocyclohexyl)-2-{[4-(4-methylpiperazin-1-yl)phenyl]amino}-6-propyl-6H-pyrimido[5,4-c][2,1]benzothiazine-8-carboxamide 5,5-dioxide] |
| 3 | CCCN1c2cc(-c3cnc(N)nc3)ccc2-c2nc(Nc3ccc(N4CCN(C)CC4)cc3)ncc2S1(=O)=O [Example 73, 8-(2-aminopyrimidin-5-yl)-N-[4-(4-methylpiperazin-1-yl)phenyl]-6-propyl-6H-pyrimido[5,4-c][2,1]benzothiazin-2-amine 5,5-dioxide] |
| 2 | COC(=O)c1ccc2c(c1)N(c1ccccc1)S(=O)(=O)c1cnc(Nc3ccc(N4CCN(C)CC4)cc3)nc1-2 [Example 88, methyl 2-{[4-(4-methylpiperazin-1-yl)phenyl]amino}-6-phenyl-6H-pyrimido[5,4-c][2,1]benzothiazine-8-carboxylate 5,5-dioxide] |
